Source: the supplement of paper PMC10307832

Assays:
Assay in all cases: relative viability (nuclei count vs DMSO), 5 days (fraction); higher = more cells survive
[1] = compound: C1CNCCC1C2=CC(=NN2)C3=CC=NC=C3 + O=C(c1cc(Cc2n[nH]c(=O)c3ccccc23)ccc1F)N1CCN(C(=O)C2CC2)CC1 [Olaparib] (partner 8 µM)
Outline: (§1)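 Relative viability was taken as the ratio of nuclei in treated wells to nuclei in vehicle wells. Lung cancer cell lines in 1536-well plates received compounds by pin tool one day after seeding, either one drug alone or a fixed anchor-drug dose plus five library-drug doses (not always all listed) in √10 steps. Nuclei were counted on 4× images after 5 days of treatment, and values are medians of duplicate plates.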

[2] = compound: C[C@@H](N)c1ccc(C(=O)Nc2ccnc3[nH]ccc23)cc1 + CS(=O)(=O)N1CCN(Cc2cc3nc(-c4cccc5[nH]ncc45)nc(N4CCOCC4)c3s2)CC1 [Pictilisib] (partner 1 µM)
Outline: as §1

[3] = compound: C[C@@H](N)c1ccc(C(=O)Nc2ccnc3[nH]ccc23)cc1 + Nc1nc2[nH]cc(CCc3ccc(C(=O)N[C@@H](CCC(=O)O)C(=O)O)cc3)c2c(=O)[nH]1 [Pemetrexed] (partner 0.2 µM)
Outline: as §1

Tanzisertib + Trametinib = compound: O[C@H]1CC[C@H](Nc2ncc3nc(Nc4c(F)cc(F)cc4F)n([C@H]4CCOC4)c3n2)CC1 [Tanzisertib] + CC(=O)Nc1cccc(-n2c(=O)n(C3CC3)c(=O)c3c(Nc4ccc(I)cc4F)n(C)c(=O)c(C)c32)c1 [Trametinib] (partner 0.02 µM)
Outline: as §1

| Cell Line | relative viability ([1]; first compound 0.08 µM) | relative viability ([1]; first compound 0.8 µM) | relative viability ([1]; first compound 2.53 µM) | relative viability ([1]; first compound 8 µM) | relative viability ([2]; first compound 0.04 µM) | relative viability ([2]; first compound 0.1265 µM) | relative viability ([2]; first compound 0.4 µM) | relative viability ([2]; first compound 1.265 µM) | relative viability ([2]; first compound 4 µM) | relative viability ([3]; first compound 0.04 µM) | relative viability ([3]; first compound 0.1265 µM) | relative viability ([3]; first compound 0.4 µM) | relative viability ([3]; first compound 1.265 µM) | relative viability ([3]; first compound 4 µM) | relative viability (Tanzisertib + Trametinib; first compound 0.08 µM) | relative viability (Tanzisertib + Trametinib; first compound 0.253 µM) | relative viability (Tanzisertib + Trametinib; first compound 0.8 µM) | relative viability (Tanzisertib + Trametinib; first compound 2.53 µM) | relative viability (Tanzisertib + Trametinib; first compound 8 µM) |
| --- | --- | --- | --- | --- | --- | --- | --- | --- | --- | --- | --- | --- | --- | --- | --- | --- | --- | --- | --- |
| SK-MES-1 | 0.553 | 0.849 | 0.714 | 0.684 | 0.375 | 0.39 | 0.359 | 0.395 | 0.404 | 0.901 | 0.964 | 0.906 | 0.887 | 0.877 | 0.618 | 0.549 | 0.54 | 0.493 | 0.385 |
| NCI-H1793 | 0.748 | – | 0.902 | 0.953 | 0.251 | 0.437 | 0.327 | – | 0.402 | 1.02 | 0.978 | 0.94 | – | 1 | 0.65 | 0.419 | 0.475 | 0.398 | 0.542 |
| NCI-H2405 | 0.843 | 0.952 | 0.894 | 0.831 | – | 0.433 | 0.399 | 0.194 | 0.207 | – | 1.09 | 0.918 | 0.567 | 0.306 | 0.766 | 0.559 | 0.565 | 0.52 | 0.44 |
| LCLC-103H | 0.79 | 0.839 | 0.717 | 0.723 | 0.756 | 0.616 | 0.54 | 0.482 | 0.584 | 0.417 | 0.426 | 0.493 | 0.51 | 0.407 | 0.661 | 0.744 | 0.703 | 0.691 | 0.71 |
| NCI-H460 | 0.303 | 0.505 | 0.451 | 0.412 | 0.467 | 0.252 | 0.489 | 0.0436 | 0.372 | 0.0682 | 0.063 | 0.0594 | 0.0603 | 0.0691 | 0.177 | 0.11 | 0.2 | 0.139 | 0.0888 |
| NCI-H1755 | 0.974 | 0.922 | 0.857 | 0.852 | 0.418 | 0.487 | 0.517 | 0.382 | 0.364 | 0.433 | 0.527 | 0.448 | 0.425 | 0.471 | 0.791 | 0.831 | 0.779 | 0.697 | 0.719 |
| NCI-H358 | 0.48 | 0.691 | 0.648 | 0.525 | 0.339 | 0.31 | 0.33 | 0.289 | 0.326 | 0.183 | 0.189 | 0.18 | 0.165 | 0.16 | 0.141 | 0.134 | 0.151 | 0.155 | 0.133 |
| NCI-H1734 | 0.581 | 0.639 | 0.598 | 0.635 | 0.475 | 0.474 | 0.461 | – | 0.353 | 0.405 | 0.419 | 0.385 | 0.362 | 0.39 | 0.652 | 0.669 | 0.709 | 0.681 | 0.721 |
| EPLC-272H | 0.973 | 0.761 | 0.935 | 0.801 | 0.387 | 0.34 | 0.339 | – | 0.297 | 0.251 | 0.339 | 0.312 | 0.238 | 0.225 | 0.318 | 0.279 | 0.322 | 0.317 | 0.297 |
| NCI-H2126 | 0.933 | 0.875 | 0.923 | 0.939 | 0.632 | 0.494 | 0.55 | 0.349 | 0.6 | 0.697 | 0.684 | 0.764 | 0.57 | 0.738 | 0.56 | 0.597 | 0.611 | 0.546 | 0.59 |
